Source: patent publication US10864238B2, “Composition containing Poria cocos peel extract for treating neurodegenerative disorders” (NeuroBo Pharmaceuticals, Inc., priority 2014, dated 2020)

Legend:
[1] = tested on: human Tau [pS199]; assay: Phosphorylated tau in neuronal cell line (ELISA); assay type: cell-based; conditions: 10 ug/ml; SH-SY5Y; FIG. 11
Procedure: Phosphorylated tau levels were measured in order to confirm the inhibitory effect of Poria cocos peel extracts on tau hyper-phosphorylation. SH-SY5Y cells (1×10^6 cells/well) were seeded in 6-well culture plates and cultured in DMEM/F12 (Dulbecco's modified Eagle's medium) medium containing 10% FBS (fetal bovine serum) for 48 hours. After 5 days of differentiation using DMEM/F12 medium containing 10 μM retinoic acid and 3% FBS, after 6 hours of treatment with the Poria cocos peel extracts (10 or 100 ug/mL), Aβ42 was treated and cultured for a total of 48 hours. After cell lysis using RIPA buffer, the protein content was quantitated with BCA reagent purchased from Pierce. Phosphorylated tau was measured using human Tau [pS199] enzyme-linked immunosorbent assay (ELISA) KIT purchased from Invitrogen.

[2] = tested on: beta-nerve growth factor; assay: NGF level measurement in nerve cell line (ELISA); assay type: cell-based, human; conditions: 10 ug/mL; SH-SY5Y; FIG. 12
Procedure: NGF levels were measured in order to determine the mechanism of cognitive improvement of the Poria cocos peel extracts. SH-SY5Y cells (1×10^6 cells/well) were inoculated on 6-well culture plates and cultured in DMEM/F12 (Dulbecco's modified Eagle's medium) medium containing 10% fetal bovine serum for 48 hours. After 5 days of differentiation using DMEM/F12 medium containing 10 μM retinoic acid and 3% FBS, the cells were treated with Poria cocos peel extracts (10 or 100 ug/ml). Cells were lysed using RIPA buffer, and protein content was quantitated with BCA reagent purchased from Pierce. NGF levels were measured using a beta-nerve growth factor human enzyme-linked immunosorbent assay (ELISA) KIT purchased from Abcam.

With `COc1cc2c(cc1OC)C(=O)C(CC1CCN(Cc3ccccc3)CC1)C2` (centres unmarked) [Donepezil] the “tau phosphorylation induced by Aβ42” value [1] was “did not show the inhibitory effect on tau phosphorylation” and the NGF production [2] was “did not show NGF-related efficacy”.
